Assays:
[1] = test system: MMP13 mRNA; experiment: real-time RT-PCR for MMP13 mRNA in KOA osteocyte-like cultures; assay type: cell-based, human; settings: KOA donor osteocyte-like cultures, PPS 1 μg/mL + rhTNFα 1 ng/mL (FIG. 20)
Description: FIG. 20. The effect of PPS treatment on basal and TNFα-induced MMP13 expression in human KOA osteocyte-like cultures. Real-time RT-PCR analysis of MMP13 mRNA relative to the expression of 18S rRNA. Data are means+SD of triplicate real-time RT-PCR reactions. A) KOA1-MMP13:18S mRNA expression; and B) KOA2-MMP13:185 mRNA expression.
Cryopreserved cells from each donor (all at passage 0 or 1) were thawed and cultured for 10d in T75 cm^2 tissue culture flasks. Once confluent, cells were removed by collagenase/dispase digestion, washed by centrifugation, counted and adjusted to 5×10^5 cells/mL. Cells were then seeded into either 12-well tissue culture trays or into 8-well chamber slides, at 1×10^5 and 2×10^4 cells/well, respectively. […]
Following three days of pre-treatment of osteocyte-like cultures with PPS and a further 48 h treatment period, total RNA was isolated for the purposes of analysing gene expression using real-time RT-PCR. While the quality of the RNA isolated from all cultures appeared to be high, as adjudged by Nanodrop micro-spectrophotometry showing the ratio of absorbance at 260 nm/280 nm generally being between 1.9 and 2.0, there was a consistent inability to generate complementary DNA (cDNA) from any samples exposed to 5 or 50 μg/mL PPS, except in one or two samples. […]

[2] = test system: MMP13; experiment: MMP13 immunostaining / confocal microscopy of KOA osteocyte-like cultures; assay type: cell-based, human; settings: KOA2 cells, rhTNFα + PPS 50 μg/mL (FIG. 21)
Protocol: FIG. 21. The effect of PPS treatment on basal and TNFα-induced MMP13 expression in human KOA osteocyte-like cultures. Confocal microscopy imaging of immunostaining of KOA2 cells untreated stained with isotype control primary antibody or mouse anti-human anti-MMP13 antibody (top row), or treated with rhTNFα alone or rhTNFα+PPS (50 μg/mL) and stained for MMP13 (green staining). All nuclei are stained with DAPI (blue). A) Isotype IgG control; B) Untreated; anti-MMP13; C) rhTNF-α-treated; anti-MMP13; and D) rhTNFa+PPS50; anti-MMP13.
Cell seeded in 8-well chamber slides and differentiated for 28 days or freshly digested from bone were either untreated or treated with rhTNFα (1 ng/mL), PPS (50 μg/mL; ‘PPS50’) or PPS50+rhTNFα. Following differentiation, medium was removed and all wells rinsed with PBS (pH 7.4, Gibco) a total of three times. Cells were then fixed with 100 μL of Histochoice (Sigma-Aldrich) tissue fixative for 1 hour at room temperature. After fixation, wells were rinsed twice with distilled H2O and stored at 4° C. until staining. Cells were blocked with 50 μL of blocking buffer (5% v/v normal rabbit serum in 1×PBS) for 20 minutes at room temperature in a humid chamber. Cells were then rinsed with wash buffer (0.1% v/v normal rabbit serum in PBS) three times. […]

Substance: Sodium Pentosan Polysulfate [PPS]
- rhTNFα-induced MMP13 mRNA expression [1]: strongly inhibited
- inhibition of rhTNFα-induced MMP13 at the protein level (immunostaining) [2]: confirmed

— patent publication US11752169B2, “Treatment of pain with polysulfated polysaccharides” (PARADIGM BIOPHARMACEUTICALS LTD., priority 2018, dated 2023)
